Earlier results as cited in publication PMC7520419 (The AAPS Journal, 2020).
Counter-ions that a name gives are not always drawn.

Conditions: Model 2; fasted; ref published clinical data (Table I); cited from earlier work
For Observed AUC(0-inf) Fasted in this document: test concentration or dose not given here.
For Observed AUC(0-inf) Fed in this document: test concentration or dose not given here.
For Observed Cmax Fasted in this document: test concentration or dose not given here.
For Observed Cmax Fed in this document: test concentration or dose not given here.

Compound | Observed AUC(0-inf) Fasted [ng·h/mL] | Observed Cmax Fasted [ng/mL]
C#C[C@]1(O)CC[C@H]2[C@@H]3CCC4=Cc5oncc5C[C@]4(C)[C@H]3CC[C@@]21C [Danazol] | 231 | 37

Same assay, conditions: Model 2; fed; ref published clinical data (Table I); cited from earlier work

Compound | Observed AUC(0-inf) Fed [ng·h/mL] | Observed Cmax Fed [ng/mL]
C#C[C@]1(O)CC[C@H]2[C@@H]3CCC4=Cc5oncc5C[C@]4(C)[C@H]3CC[C@@]21C [Danazol] | 668 | 101

Same assay, conditions: clinically observed PK change (AUC, Cmax) fed vs fasted; compiled by literature search; cited from earlier work

Compound | Food Effect
CNC(=O)c1cc(Oc2ccc(NC(=O)Nc3ccc(Cl)c(C(F)(F)F)c3)c(F)c2)ccn1 [Regorafenib] | Positive (positive if the ratio of fed > fasted)
Cc1c(OCC(F)(F)F)ccnc1C[S+]([O-])c1nc2ccccc2[nH]1 (stereo not drawn) [Lansoprazole] | None (none if no significant change in AUC and Cmax with food)
O=P(O)(O)C(Cl)(Cl)P(=O)(O)O [Clodronate] | Negative (negative if ratio fasted > fed)
NNc1nncc2ccccc12 [Hydralazine] | Negative (negative if ratio fasted > fed)
CCC[C@H](NC(=O)[C@@H]1[C@H]2CCC[C@H]2CN1C(=O)[C@@H](NC(=O)[C@@H](NC(=O)c1cnccn1)C1CCCCC1)C(C)(C)C)C(=O)C(=O)NC1CC1 [Telapravir] | Positive (positive if the ratio of fed > fasted)
O=C1Nc2ccc(Cl)cc2[C@@](C#CC2CC2)(C(F)(F)F)O1 [Efavirenz] | Positive (positive if the ratio of fed > fasted)
C[C@@H](Oc1cc(-c2cnn(C3CCNCC3)c2)cnc1N)c1c(Cl)ccc(F)c1Cl [Crizotinib] | None (none if no significant change in AUC and Cmax with food)
CCCCCOC(=O)Nc1nc(=O)n([C@@H]2O[C@H](C)[C@@H](O)[C@H]2O)cc1F [Capecitabine] | Negative (negative if ratio fasted > fed)
CS(=O)(=O)CCNCc1ccc(-c2ccc3ncnc(Nc4ccc(OCc5cccc(F)c5)c(Cl)c4)c3c2)o1 [Lapatinib] | Positive (positive if the ratio of fed > fasted)
Nc1nc(NC2CC2)c2ncn([C@H]3C=C[C@@H](CO)C3)c2n1 [Abacavir sulfate] | None (none if no significant change in AUC and Cmax with food)
CC(C)(C)c1nc(-c2cccc(NS(=O)(=O)c3c(F)cccc3F)c2F)c(-c2ccnc(N)n2)s1 [Tafinlar] | Negative (negative if ratio fasted > fed)
COc1cc(C)c(/C=C/C(C)=C/C=C/C(C)=C/C(=O)O)c(C)c1C [Acitretin] | Positive (positive if the ratio of fed > fasted)
CC1COc2c(N3CCN(C)CC3)c(F)cc3c(=O)c(C(=O)O)cn1c23 (stereo not drawn) [Ofloxacin] | None (Absorption delayed but extent not substantially affected) (none if no significant change in AUC and Cmax with food)
CN(C)C(=N)N=C(N)N [Metformin] | None (none if no significant change in AUC and Cmax with food)
CN[C@H]1CC[C@@H](c2ccc(Cl)c(Cl)c2)c2ccccc21 [Sertraline] | None (none if no significant change in AUC and Cmax with food)
CCc1nn(CCCN2CCN(c3cccc(Cl)c3)CC2)c(=O)n1CCOc1ccccc1 [Nefazodone hydrochloride] | Negative (negative if ratio fasted > fed)
Cc1ccc(-c2cc(C(F)(F)F)nn2-c2ccc(S(N)(=O)=O)cc2)cc1 [Celecoxib] | Slightly positive
O=C1CN=C(c2ccccn2)c2cc(Br)ccc2N1 [Bromazepam] | Negative (negative if ratio fasted > fed)
N[C@@H](CC(=O)N1CCn2c(nnc2C(F)(F)F)C1)Cc1cc(F)c(F)cc1F [Sitagliptin] | None (none if no significant change in AUC and Cmax with food)
NC(=O)c1ncn([C@@H]2O[C@H](CO)[C@@H](O)[C@H]2O)n1 [Ribavirin] | Positive (positive if the ratio of fed > fasted)
Cc1ccc(O)c([C@H](CCN(C(C)C)C(C)C)c2ccccc2)c1 [Tolterodine tartrate] | None (none if no significant change in AUC and Cmax with food)
CC1=C(/C=C/C(C)=C/C=C/C(C)=C\C(=O)O)C(C)(C)CCC1 [Isotretinoin] | Positive (positive if the ratio of fed > fasted)
O=C1CCc2ccc(OCCCCN3CCN(c4cccc(Cl)c4Cl)CC3)cc2N1 [Aripiprazole] | None (none if no significant change in AUC and Cmax with food)
CC(C)c1c(C(=O)Nc2ccccc2)c(-c2ccccc2)c(-c2ccc(F)cc2)n1CC[C@@H](O)C[C@@H](O)CC(=O)O [Atorvastatin] | None (none if no significant change in AUC and Cmax with food)
CO/N=C(\C(=O)N[C@@H]1C(=O)N2C(C(=O)OCOC(=O)C(C)(C)C)=C(/C=C\c3scnc3C)CS[C@H]12)c1csc(N)n1 [Cefditoren pivoxil] | Positive (positive if the ratio of fed > fasted)
CCCCC(C)(O)C/C=C/[C@H]1[C@H](O)CC(=O)[C@@H]1CCCCCCC(=O)OC (mixture of isomers) [Misoprostol] | None (none if no significant change in AUC and Cmax with food)
NS(=O)(=O)c1cc2c(cc1Cl)NCNS2(=O)=O [Hydrochlorothiazide] | None (none if no significant change in AUC and Cmax with food)
CC(=O)N(CCC(CCN1CCCCC1)(C(N)=O)c1ccccc1Cl)C(C)C (stereo not drawn) [Bidisomide] | Negative (negative if ratio fasted > fed)

Compound | Food Effect
CC(C)Cn1cnc2c(N)nc3ccccc3c21 [Imiquimod] | None (none if no significant change in AUC and Cmax with food)
O=[N+]([O-])O[C@@H]1CO[C@H]2[C@@H]1OC[C@@H]2O [Isosorbide Mononitrite] | None (none if no significant change in AUC and Cmax with food)
CCCCC1=NC2(CCCC2)C(=O)N1Cc1ccc(-c2ccccc2-c2nnn[nH]2)cc1 [Irbesartan] | None (none if no significant change in AUC and Cmax with food)
CNC(=O)c1ccccc1Sc1ccc2c(/C=C/c3ccccn3)n[nH]c2c1 [Axitinib] | None (none if no significant change in AUC and Cmax with food)
CC1(C)O[C@@H]2[C@@H](CO[C@@]3(COS(N)(=O)=O)OC(C)(C)O[C@@H]23)O1 [Topiramate] | None (none if no significant change in AUC and Cmax with food)
CC(O)(CS(=O)(=O)c1ccc(F)cc1)C(=O)Nc1ccc(C#N)c(C(F)(F)F)c1 (stereo not drawn) [Bicalutamide] | None (none if no significant change in AUC and Cmax with food)
CC(C)(C)NC(=O)[C@@H]1C[C@@H]2CCCC[C@@H]2CN1C[C@@H](O)[C@H](Cc1ccccc1)NC(=O)[C@H](CC(N)=O)NC(=O)c1ccc2ccccc2n1 [Saquinavir] | Positive (positive if the ratio of fed > fasted)
CS(=O)(=O)c1ccc(C2=C(c3ccccc3)C(=O)OC2)cc1 [Rofecoxib] | None (none if no significant change in AUC and Cmax with food)
CCCCc1oc2ccccc2c1C(=O)c1cc(I)c(OCCN(CC)CC)c(I)c1 [Amiodarone] | Positive (positive if the ratio of fed > fasted)
COc1cc2nc(N(C)CCCNC(=O)C3CCCO3)nc(N)c2cc1OC (stereo not drawn) [Alfuzosine] | Positive (positive if the ratio of fed > fasted)
CCCSc1ccc2nc(NC(=O)OC)[nH]c2c1 [Albendazole] | Positive (positive if the ratio of fed > fasted)
Nc1nc(O)c2ncn(COC(CO)CO)c2n1 [Ganciclovir] | None (none if no significant change in AUC and Cmax with food)
Nc1ccn([C@H]2CC[C@@H](CO)O2)c(=O)n1 [Zalcitabine] | None (none if no significant change in AUC and Cmax with food)
CCOc1ccccc1OCCN[C@H](C)Cc1ccc(OC)c(S(N)(=O)=O)c1 [Tamsulosin hydrochloride] | Negative (negative if ratio fasted > fed)
CC(C)OC(=O)C(C)(C)Oc1ccc(C(=O)c2ccc(Cl)cc2)cc1 [Fenofibrate] | Positive (positive if the ratio of fed > fasted)
N#CC[C@H](C1CCCC1)n1cc(-c2ncnc3[nH]ccc23)cn1 [Ruxolitinib] | None (none if no significant change in AUC and Cmax with food)
CC(C)(C(=O)O)c1ccc(C(O)CCCN2CCC(C(O)(c3ccccc3)c3ccccc3)CC2)cc1 (stereo not drawn) [Fexofenadine] | Negative (negative if ratio fasted > fed)
CC(C)C[C@H]1C(=O)N2CCC[C@H]2[C@]2(O)O[C@](NC(=O)[C@@H]3C=C4c5cccc6[nH]c(Br)c(c56)C[C@H]4N(C)C3)(C(C)C)C(=O)N12 [Bromocriptine] | None (none if no significant change in AUC and Cmax with food)
CC(C)c1nc(N(C)S(C)(=O)=O)nc(-c2ccc(F)cc2)c1/C=C/[C@@H](O)C[C@@H](O)CC(=O)O [Rosuvastatin] | Negative (negative if ratio fasted > fed)
O=C1C(O)=C([C@H]2CC[C@H](c3ccc(Cl)cc3)CC2)C(=O)c2ccccc21 [Atovaquone] | Positive (positive if the ratio of fed > fasted)
CN(C)CCc1c[nH]c2ccc(C[C@H]3COC(=O)N3)cc12 [Zolmitriptan] | None (none if no significant change in AUC and Cmax with food)
COc1cc2nccc(Oc3ccc(NC(=O)C4(C(=O)Nc5ccc(F)cc5)CC4)cc3)c2cc1OC [Cabozantinib] | Positive (positive if the ratio of fed > fasted)
CCCCCCCNC(=O)Oc1ccc2c(c1)[C@]1(C)CCN(C)[C@@H]1N2C [Eptastigmine] | Negative (negative if ratio fasted > fed)
O=C(O[C@H]1C[C@H]2CC[C@@H](C1)[N+]21CCCC1)C(O)(c1ccccc1)c1ccccc1 [Trospium Chloride] | Negative (negative if ratio fasted > fed)
O=c1[nH]cnc2c1ncn2[C@H]1CC[C@@H](CO)O1 [Didanosine] | Negative (negative if ratio fasted > fed)
CC[C@@H]([C@H](C)O)n1ncn(-c2ccc(N3CCN(c4ccc(OC[C@@H]5CO[C@@](Cn6cncn6)(c6ccc(F)cc6F)C5)cc4)CC3)cc2)c1=O [Posaconazole] | Positive (positive if the ratio of fed > fasted)
C=CC1=C(C(=O)O)N2C(=O)[C@@H](NC(=O)/C(=N\O)c3csc(N)n3)[C@H]2SC1 [Cefdinir] | None (none if no significant change in AUC and Cmax with food)

Same assay, conditions: ref drug label; cited from earlier work

Compound | food effect (FE) direction
NS(=O)(=O)c1cc(C(=O)O)c(NCc2ccco2)cc1Cl [Furosemide] | negative FE
